The test system of data set [1] is LU2514 SCLC patient derived xenograft. The data set can be described thus: Efficacy in LU2514 HuPrime SCLC PDX model. The data set is classed as in vivo, female BALB/c nude mice. As to the method: Tumor growth inhibition analysis was performed on Day 28 post treatment, the last day of dosing.
Data set [2] concerns LU1480 SCLC patient derived xenograft. The experiment in a line: Efficacy in LU1480 HuPrime SCLC PDX model. The data set is classed as in vivo, female BALB/c nude mice.
The target of data set [3] is MDR1 (human P-gp)-MDCK cells (Homo sapiens (Human), UniProt P08183). The data set can be described thus: Permeability in MDR1-MDCK cells. The data set is classed as in vitro ADME. The following applies: B→A direction.
MDR1 (human P-gp)-MDCK cells, sequence (P08183 whole entry): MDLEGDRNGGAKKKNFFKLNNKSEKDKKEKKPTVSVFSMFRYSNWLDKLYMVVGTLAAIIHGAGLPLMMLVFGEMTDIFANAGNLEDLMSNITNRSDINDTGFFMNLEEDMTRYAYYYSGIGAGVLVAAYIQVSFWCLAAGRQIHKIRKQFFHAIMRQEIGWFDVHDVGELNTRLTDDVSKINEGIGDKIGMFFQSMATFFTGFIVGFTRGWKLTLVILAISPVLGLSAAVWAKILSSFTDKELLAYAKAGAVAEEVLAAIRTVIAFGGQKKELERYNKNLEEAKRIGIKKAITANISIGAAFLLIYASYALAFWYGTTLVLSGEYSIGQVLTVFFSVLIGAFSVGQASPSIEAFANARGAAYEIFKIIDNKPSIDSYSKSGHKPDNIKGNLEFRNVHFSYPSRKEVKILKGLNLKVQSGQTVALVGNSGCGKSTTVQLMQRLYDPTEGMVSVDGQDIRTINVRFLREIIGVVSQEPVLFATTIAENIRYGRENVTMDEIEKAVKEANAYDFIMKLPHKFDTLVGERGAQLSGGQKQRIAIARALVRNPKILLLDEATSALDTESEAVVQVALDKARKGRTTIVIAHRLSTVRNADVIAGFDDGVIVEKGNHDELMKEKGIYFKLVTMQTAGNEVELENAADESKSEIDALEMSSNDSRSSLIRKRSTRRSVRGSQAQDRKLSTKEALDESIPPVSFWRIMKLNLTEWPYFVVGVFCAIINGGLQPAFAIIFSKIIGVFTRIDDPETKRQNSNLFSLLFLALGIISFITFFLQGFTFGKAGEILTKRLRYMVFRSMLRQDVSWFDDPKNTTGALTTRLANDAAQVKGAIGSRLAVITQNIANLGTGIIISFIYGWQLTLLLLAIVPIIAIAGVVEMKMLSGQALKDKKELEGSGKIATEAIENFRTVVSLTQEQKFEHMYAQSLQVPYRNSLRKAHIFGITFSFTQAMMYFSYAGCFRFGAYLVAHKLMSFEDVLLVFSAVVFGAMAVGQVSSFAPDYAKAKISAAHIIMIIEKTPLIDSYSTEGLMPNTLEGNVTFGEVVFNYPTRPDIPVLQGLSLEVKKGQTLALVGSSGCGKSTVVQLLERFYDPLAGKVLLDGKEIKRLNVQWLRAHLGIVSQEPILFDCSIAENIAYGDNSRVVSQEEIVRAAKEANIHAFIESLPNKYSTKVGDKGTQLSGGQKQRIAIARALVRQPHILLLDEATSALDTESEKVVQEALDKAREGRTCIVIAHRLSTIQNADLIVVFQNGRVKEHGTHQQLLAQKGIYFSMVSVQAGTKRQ
Data set [4] can be described thus: Predicted human pharmacokinetics (allometric scaling).
Data set [5] has as its system NCI-H1417 SCLC xenograft. The experiment in a line: Efficacy in NCI-H1417 SCLC xenograft model. The format is in vivo, female athymic nude mice.
Data set [6] concerns the target CYP2C9 (Homo sapiens (Human), UniProt P11712). The experiment in a line: CYP inhibition in pooled human liver microsomes, CYP2C9. The data set is classed as in vitro ADME. As to conditions: up to 50 μM. On the technique in general: Microsomes from liver hold many membrane-bound enzymes, among them those of drug oxidation.
Data set [7] concerns LXFS 573 SCLC patient derived xenograft. The data set can be described thus: Efficacy in LXFS 573 SCLC PDX model. The data set is classed as in vivo, female NMRI-Foxn1nu mice. As to conditions: 5 to 10 mg/kg oral.
A short description of data set [8]: Exploratory toxicity study in dogs. The following applies: 0.5 mg/kg/day 5 days on/2 days off, Day 12.
Data set [9] concerns GA0087 gastric NEC patient-derived xenograft. The format is in vivo. The following applies: 1.5 and 5 mg/kg orally QD.
A short description of data set [10]: 4-week oral gavage pivotal toxicity study with 4-week recovery in dogs (incl. ECG, toxicokinetics). The data set is classed as in vivo, Beagle dogs. The procedure:
The QTc interval was calculated using the Fridericia method.

Data set [11] deals with ST18 and FREM2 gene expression in MS-1 tumors. The data set can be described thus: In vivo xenograft dose-response of PD biomarker genes, MS-1 tumors. More on the design: species or system female NSG mice. As to conditions: 1, 2.5, or 5 mg/kg PO BID x4.5, tumors 4 hours after last dose. An excerpt:
(§1) Female NSG mice bearing palpable hMCC MKL-1 and MS-1 tumors were randomized into four groups of three mice each. […] The fourth group was orally administered vehicle as a control on the BID schedule. Four hours after the last dosing, tumors were collected into RNAlater and stored frozen.
(§2) Total RNA was eluted in RNase-free water and analyzed by qRT-PCR.

Data set [12] in a line: Hemodynamic and ECG parameters in anesthetized guinea pigs. The format is in vivo, male Dunkin Hartley guinea pigs. An excerpt:
Animals were monitored throughout the experiment.

For data set [13], the system named is ST18 and FREM2 gene expression in MKL-1 tumors. The data set can be described thus: In vivo xenograft dose-response of PD biomarker genes, MKL-1 tumors. More on the design: species or system female NSG mice. As to conditions: 1, 2.5, or 5 mg/kg PO BID x4.5, tumors 4 hours after last dose.
From the text: as §1, §2

Data set [14] is described as follows: Excretion in bile duct cannulated rats. The following applies: IV dosing, 24-hour period. The data set is classed as in vivo.
Data set [15] has as its target CYP2D6 (Homo sapiens (Human), UniProt P10635). The data set can be described thus: CYP inhibition in pooled human liver microsomes, CYP2D6. The format is in vitro ADME. The following applies: up to 50 μM.
Data set [16] has as its system LXFS 573 SCLC patient-derived xenograft. The following applies: for SS (number of study survivors): Day 133, N=8.
Data set [17] can be described thus: Metabolism in cryopreserved primary hepatocytes. The format is in vitro ADME, mouse, rat, dog, monkey, human.
In data set [18] the test system is gene expression in MKL-1 cells. The experiment in a line: Modulation of gene expression by RNA-seq, MKL-1 cells. The format is cell-based, human. As to conditions: 10 and 100 nM, 3 days. As to the method: (§3) Libraries were sequenced on an Illumina NextSeq® 500 System (Illumina, San Diego, Calif.) using 75 base paired-end RNA sequencing. Sequenced reads were mapped to the hg19 human genome build and differential expression was determined by analysis of variance across all replicates relative to the vehicle control.
(§4) Sequenced reads were mapped to the hg19 human genome build using the Spliced Transcripts Alignment to a Reference (STAR) software tool (©Alexander Dobin, 2009-2016) and transcript counts were normalized using the Empirical Analysis of Digital Gene Expression Data in R (edgeR) and Differential gene expression analysis based on the negative binomial distribution (DESeq2) software tools ((Bioconductor, 2003-2017). Differential expression was determined by analysis of variance across all replicates relative to the vehicle control.

Data set [19] relates to LNCaP cells. The data set can be described thus: LNCaP cell proliferation with DHT and irradiation. The format is cell-based, human. As to conditions: 100 nM Compound A with 10 nM DHT and 2Gy irradiation, 220 hours. As to the method: LNCaP cells are androgen-sensitive human prostate adenocarcinoma cells. […] The proliferation of the LNCap cells was monitored for 220 hours.

For data set [20], the system named is recombinant human CYP enzymes. The experiment in a line: CYP reaction phenotyping with recombinant human CYP enzymes. The data set is classed as in vitro ADME. An excerpt:
The role of non-CYP enzymes in the metabolism of Compound A is yet to be ascertained.

Data set [21] is described as follows: 4-week toxicity study with 4-week recovery in mice (incl. toxicokinetics). The following applies: QDx5/week schedule.
A short description of data set [22]: Exploratory toxicity study in mice. The format is in vivo, CD-1 mice. The following applies: for reduction in neutrophil counts versus concurrent controls: 60 mg/kg/dose QOD. An excerpt:
Additional animals were included for TK evaluation.

The subject of data set [23] is gene expression in MS-1 cells. The experiment in a line: Modulation of gene expression by RNA-seq, MS-1 cells. The format is cell-based, human. The following applies: 10 and 100 nM, 3 days. As to the method: as §3, §4
Data set [24] in a line: Pharmacokinetics after IV and oral dose, rats. The data set is classed as in vivo, Sprague Dawley rats. As to conditions: IV dosing, rats (greater than liver blood flow).
Data set [25] concerns LU2527 lung NEC patient-derived xenograft. The format is in vivo. The following applies: 1.5 and 5 mg/kg orally QD.
Data set [26] concerns NCI-H1417 SCLC xenograft. As to conditions: etoposide monotherapy 24 mg/kg SC QDx3.

Like-named read-outs stand apart in the source and are kept apart here.

CYP2C9, sequence (P11712 whole entry): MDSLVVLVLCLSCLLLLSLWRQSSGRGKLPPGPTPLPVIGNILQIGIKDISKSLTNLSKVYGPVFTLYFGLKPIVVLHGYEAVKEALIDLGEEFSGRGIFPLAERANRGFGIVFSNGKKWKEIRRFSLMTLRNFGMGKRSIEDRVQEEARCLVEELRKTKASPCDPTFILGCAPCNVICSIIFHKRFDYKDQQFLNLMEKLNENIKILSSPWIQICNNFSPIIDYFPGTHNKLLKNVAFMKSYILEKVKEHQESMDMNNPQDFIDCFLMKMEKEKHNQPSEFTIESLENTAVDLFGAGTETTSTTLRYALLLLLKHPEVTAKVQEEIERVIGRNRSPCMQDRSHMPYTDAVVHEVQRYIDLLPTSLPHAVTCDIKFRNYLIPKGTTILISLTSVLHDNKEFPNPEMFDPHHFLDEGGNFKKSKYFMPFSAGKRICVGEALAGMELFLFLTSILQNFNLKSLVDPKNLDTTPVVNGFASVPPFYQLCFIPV
CYP2D6, sequence (P10635 whole entry): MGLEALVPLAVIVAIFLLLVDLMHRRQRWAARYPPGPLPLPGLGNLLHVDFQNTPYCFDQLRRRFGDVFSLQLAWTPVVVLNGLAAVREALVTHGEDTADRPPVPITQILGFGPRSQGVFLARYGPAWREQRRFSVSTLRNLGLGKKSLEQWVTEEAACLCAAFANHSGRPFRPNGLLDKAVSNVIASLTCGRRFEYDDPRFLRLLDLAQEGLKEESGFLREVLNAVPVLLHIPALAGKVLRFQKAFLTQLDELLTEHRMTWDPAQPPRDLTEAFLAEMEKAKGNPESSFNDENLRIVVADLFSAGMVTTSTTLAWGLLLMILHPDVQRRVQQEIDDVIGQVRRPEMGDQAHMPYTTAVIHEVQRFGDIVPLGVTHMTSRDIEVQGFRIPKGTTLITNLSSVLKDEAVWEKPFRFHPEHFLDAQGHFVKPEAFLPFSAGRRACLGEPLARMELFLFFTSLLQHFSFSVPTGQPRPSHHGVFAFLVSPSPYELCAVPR

The NOAEL is the highest dose or exposure tested at which no adverse effect was seen. Take `COc1ccc(-c2c(-c3ccc(C#N)c(F)c3)nc(N3CCC(N)CC3)n(C)c2=O)cc1F` [Compound A, 4-[2-(4-amino-piperidin-1-yl)-5-(3-fluoro-4-methoxy-phenyl)-1-methyl-6-oxo-1,6-dihydro-pyrimidin-4-yl]-2-fluoro-benzonitrile]: the “Median Tumor Volumes (mm^3) Day 1” value in data set [1] (5 mg base/kg PO QDx28) is listed as 173.2 mm^3; in data set [1] (10 mg base/kg PO QDx28), 173.7 mm^3; in [2] (5 mg base/kg PO QDx21), 89.5 mm^3; in data set [2] (10 mg base/kg PO QDx21) it was 87.1 mm^3. For the same molecule, the results for the “mean body weight losses” value in data set [1] (both studies with LU2514 model) and in data set [7] were below 10% and at most 3%, respectively. This molecule also gave a permeability in [3] of 16.5 ×10⁻⁶ cm/s. The predicted clearance in data set [4] is 9.4 mL/min/kg. In addition, the results for the “Median Tumor Volumes (mm^3) Day 0” value in data set [5] (2.5 mg base/kg PO QDx65) and in [5] (5 mg base/kg PO QDx65) were 109.2 mm^3 and 108.2 mm^3, respectively. Besides, the entries for the “mean body weight gain by end of study” value in data set [5] (2.5 mg base/kg PO QDx65) and in data set [5] (5 mg base/kg PO QDx65) were 1% and 7.5%, respectively. For the same molecule, the “direct inhibitory effect on CYP2C9” value in data set [6] is recorded as “little to no direct inhibitory effect”. Further, the “body weight loss of female sacrificed moribund” value in data set [8] worked out at 10.8%. For the same molecule, the tolerability entry in [9] and in data set [25] was “acceptably tolerated” each time. Also, the “animals with moribund euthanasia” value in data set [10] (0.375 to 1.5 mg base/kg/dose QW, study Days 13 to 23) was 11 animals. The “NOEL for CV and respiratory changes” value in data set [10] (QW) is listed as 0.75 mg base/kg/dose. Also, the “change in ST18 and FREM2 gene expression” value in data set [11] and in data set [13] was at least 2 fold throughout. The “maximum increase of QTcB interval versus time-matched vehicle” value in [12] (10 mg base/kg IV) is “approximately 9%”; in [12] (15 mg base/kg IV) it was around 13%; in data set [12] (20 mg base/kg IV), around 16%. Moreover, the “maximum suppression of HR versus vehicle” value in data set [12] (20 mg base/kg IV, 9 minutes into 10-minute infusion) came out at 19%. The “effect on MAP or its components” value in [12] (5 to 20 mg base/kg IV versus time-matched vehicle) is “No notable effect”. In addition, the “dose excreted intact (urine plus bile)” value in data set [14] is 26.3 % of the dose. Besides, the “dose excreted intact in urine” value in data set [14] is 8.5 % of dose. In addition, the “direct inhibitory effect on CYP2D6” value in data set [15] was “little to no direct inhibitory effect”. Moreover, the “SS (number of study survivors)” value in data set [16] (Compound A at 5 mg/kg/day PO) was 7. Also, in [16] (Compound A monotherapy 5 mg/kg PO daily), the “MTV of study survivors on Day 133” value stood at 1064 mm3. Also, the “study survivors on Day 133” value in [16] (Compound A monotherapy 5 mg/kg PO daily, n=8) is recorded as “seven”. Also, the metabolic stability entry in data set [17] was “greater in rat and dog followed by human and monkeys while being least stable in mouse hepatocytes”. The “ST18 and FREM2 gene expression changes (upregulated)” value in [18] and in data set [23] was “at least 2 fold” each time. Moreover, the LNCaP cell proliferation entry in data set [19] is “significantly inhibits LNCaP cell proliferation”. For the same molecule, in data set [20], the “enzyme responsible for oxidative metabolism” value is on record as “CYP3A4 appears to be predominantly responsible”. Besides, the NOAEL in data set [21] was determined as 5 mg base/kg/dose. Also, in data set [21], the STD10 is above 45 mg base/kg/dose. Also, the “increase in platelets on Day 8” value in data set [22] (10 mg/kg/day 5 days on/2 days off, after 2-day dosing holiday) is above 2 fold. For the same molecule, the “reduction in neutrophil counts versus concurrent controls” value in [22] (females) was 66%; in data set [22] (males) it was 83%. For the same molecule, the “greatest reduction in neutrophil counts versus concurrent controls and pre-study values” in [22] (5 days on/2 days off schedule) was “approximately 90%”. Besides, in data set [24], the systemic clearance result was “high”.

For the molecule `COc1cc([C@@H]2c3cc4c(cc3[C@@H](O[C@@H]3O[C@@H]5CO[C@@H](C)O[C@H]5[C@H](O)[C@H]3O)[C@H]3COC(=O)[C@H]23)OCO4)cc(OC)c1O` [Etoposide, etoposide], the “median TTE” value in [16] (Etoposide at 24 mg/kg/day SC days 1-3 + Vehicle PO days 4-133) amounted to 63 days. Besides, in data set [16] (Etoposide at 24 mg/kg/day SC days 1-3 + Vehicle), the “SS (number of study survivors)” value was 0. In data set [26], the “% TGD” value was determined as 92%, the TGD came to 24 days and the “median TTE” value is 50 days.

The values above are taken from US10548896B2, “Treatment of relapsed and/or refractory solid tumors and non-Hodgkin's lymphomas” (CELGENE QUANTICEL RESEARCH, INC., priority 2016, dated 2020).
